Three compounds from patent US20150018411A1, “COMPOUNDS AS PPAR BETA/DELTA INHIBITORS FOR TREATING PPAR BETA/DELTA-MEDIATED DISEASES” (PHILIPPS-UNIVERSITAT MARBURG, priority 2011, published 2015) can be followed below.

Test [1] addresses T1, GST-PPAR beta/delta LBD (Homo sapiens, UniProt Q03181).
T1 construct: GST-PPAR beta/delta LBD (GST=glutathione S-transferase); purchased Invitrogen, Darmstadt, Germany
T1 sequence (Q03181 211-439 limits assumed): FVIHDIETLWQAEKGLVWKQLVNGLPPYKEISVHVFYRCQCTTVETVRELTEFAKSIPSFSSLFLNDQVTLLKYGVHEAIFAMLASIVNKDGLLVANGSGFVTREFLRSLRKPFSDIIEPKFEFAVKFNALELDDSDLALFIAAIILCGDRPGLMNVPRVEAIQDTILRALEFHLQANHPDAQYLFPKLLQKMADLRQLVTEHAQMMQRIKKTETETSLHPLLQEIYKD
The experiment in a line: Competitive in vitro ligand binding, TR-FRET, displacement of Fluormone Pan-PPAR-Green. The following applies: fluorescence ratio 520 nm/495 nm. The procedure:
FIG. 1: Competitive in vitro ligand binding to PPAR beta/delta. • The displacement of ligand Fluormone® Pan-PPAR Green from recombinant GST-PPAR beta/delta ligand binding domain (LBD) by the substances of the present invention comparative compound (CC) 2, compound 1 (A), compound 2 (B), and compound 3 (C), compound 4 (D), compound 5 (E) is determined by TR-FRET analysis. Shown is the ratio of fluorescence intensity at 520 nm (fluorescein emission, excited by terbium emission) and 495 nm (terbium emission). All data points represent average values of triplicates (+/−standard deviation).
A) Competitive ligand-binding of the substances of this invention was measured in vitro using time-resolved fluorescence resonance energy transfer (TR-FRET) by competition with the commercially available fluorescent Fluormone® Pan-PPAR-Green for binding to the fusion protein GST-PPAR beta/delta LBD (GST=glutathione S-transferase; LBD=ligand binding domain) (Invitrogen, Darmstadt, Germany) in a VICTOR3V Multilabel Counter (WALLAC 1420; PerkinElmer Life and Analytical Sciences, Rodgau, Germany). The measurement was performed in 100 mM KC, 20 mM Tris pH 7.9, 0.01% Triton X100 and 1 μg/μL bovine serum albumin. GST is known to the expert in the field as suitable fusion partner for proteins. For this purpose, the ratio of fluorescence intensities at 520 nm (fluorescein emission excited by terbium emission) and at 495 nm (terbium emission) is determined.

The target of test [2] is T1, GST-PPAR beta/delta LBD. The experiment in a line: Ligand-induced binding of corepressor peptide SMRT-ID2, TR-FRET. In kind it is biochemical. The following applies: concentration dependent. As to the method: FIG. 2: Induction of corepressor peptide binding to GST-PPAR beta/delta ligand binding domain (LBD) in vitro in dependency of the concentration of the substances of this invention comparative compound (CC) 2, compound 1 (A), compound 2 (B), compound 3 (C), compound 4 (D) and compound 5 (E). The interaction of fluorescein-labeled SMRT-ID2 peptide with recombinant GST-PPAR beta/delta LBD bound to a terbium-labeled anti-GST antibody is determined by TR-FRET analysis. Shown is the ratio of fluorescence intensity at 520 nm (fluorescein emission, excited by terbium emission) and 495 nm (terbium emission). All data points represent average values of triplicates (+/−standard deviation).
B) The ligand-induced binding of the commercially available fluorescein-labeled corepressor peptide SMRT-ID2 ([…]) (Invitrogen, Darmstadt, Germany) to GST-PPAR beta/delta is for example measured by TR-FRET analysis using a terbium-labeled anti-GST antibody in a VICTOR3V Multilabel Counter (WALLAC 1420; PerkinElmer Life and Analytical Sciences, Rodgau, Germany). The measurement is performed in a buffer composed of 100 mM KC, 20 mM Tris pH 7.9, 0.01% Triton X100 and 1 μg/μL bovine serum albumin.
(In TR-FRET formats the signal depends on donor and acceptor labels being close together.)

The target in test [3] is T2, PPAR beta/delta (Homo sapiens, UniProt Q03181).
T2 construct: expressed in transfected cells; host or cells: WPMY-1 human myofibroblasts, transient transfection with PEI
T2 sequence (Q03181 1-441): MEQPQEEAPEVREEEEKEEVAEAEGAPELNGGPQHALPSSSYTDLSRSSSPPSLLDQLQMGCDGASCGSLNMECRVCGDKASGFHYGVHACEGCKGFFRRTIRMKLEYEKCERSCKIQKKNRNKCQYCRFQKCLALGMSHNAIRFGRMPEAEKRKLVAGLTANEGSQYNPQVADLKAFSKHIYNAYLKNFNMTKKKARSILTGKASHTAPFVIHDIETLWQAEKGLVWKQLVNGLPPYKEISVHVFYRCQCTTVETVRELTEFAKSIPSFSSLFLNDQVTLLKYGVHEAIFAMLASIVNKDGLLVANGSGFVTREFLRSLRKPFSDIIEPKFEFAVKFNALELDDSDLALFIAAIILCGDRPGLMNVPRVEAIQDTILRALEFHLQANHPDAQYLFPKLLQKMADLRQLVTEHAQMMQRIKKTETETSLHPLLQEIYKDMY
The experiment in a line: Agonist-induced transcriptional activity, luciferase reporter in WPMY-1 cells. Type of test: cell-based. The following applies: human WPMY-1 myofibroblasts, 500 nM substance, 500 nM agonist L165041. As to the method:
FIG. 4: Effect of the substances of this invention comparative compound (CC) 2, compound 1, compound 5, compound 2 and compound 3 on the agonist-induced transcriptional activity of PPAR subtypes alpha (A), beta/delta (B) and gamma (C). • WPMY-1 cells are transiently transfected with a luciferase reporter plasmid. Four hours after transfection, cells are treated for 48 hours with the respective antagonist (500 nM), followed by a treatment with 300 nM of PPAR alpha agonist GW7647 (A), 500 nM of PPAR beta/delta agonist L165041 (B) or 300 nM of PPAR gamma agonist GW1929 (C). The relative induction is represented by the luciferase activity of the agonist-treated transfected cells in relation to solvent-treated transfected cells. Asterisks (**, *) indicate significant differences to untreated cells (after t-test; **: p<0.01; *: p<0.05). GW7647 is commercially available from Sigma-Aldrich (Steinheim, Germany). L165041 and GW1929 can be obtained from Biozol (Eching, Germany).
D) The influence of substances of this invention on the agonist-induced transcriptional activity of PPAR subtypes alpha, beta/delta or gamma is determined in WPMY-1 myofibroblasts transfected transiently with a luciferase reporter plasmid (LexA system) using polyethyleneimine (PEI) according to a method known to the expert. As agonists, substances GW7647 for PPAR alpha or L165041 for PPAR beta/delta or GW1929 for PPAR gamma known to the expert are used. WPMY-1 myofibroblast cells are initially cultured for example in a 12-well plate in DMEM medium (DMEM: Dulbecco's Modified Eagle Medium) according to a method known to the expert and to a confluence of 70% to 80%, and subsequently transfected with 2.5 μg of plasmid-DNA containing the luciferase reporter plasmid, expression plasmids for the respective PPAR subtypes and the Renilla-luciferase plasmid pRL-SV40 (Promega, Mannheim, Germany), and 2.5 μl PEI (1:1000 dilution, pH 7). Four hours after transfection, the cells are treated for 48 hours with 500 nM of the substances of this invention, and 24 later with 300 nM (GW7647 or GW1929, respectively) or 500 nM (L165041) of the respective agonist at 37° C. and 5% CO2 in an incubator. The luciferase assay is performed 48 hours after the first treatment according to the commercial method of the “dual-well-system” (pjk GmbH, Kleinblittersdorf, Germany), whereby for a normalization, not only the luciferase-, but also the Renilla activity is measured. Cells are initially lysed for this measurement, and 20 μl of the lysate is transferred into a white 96-well plate (Fisher Scientific, Hamburg, Germany). […] Mean values and standard deviation are calculated from values of three independent measurements.

In test [4] the test system is ANGPTL4 gene expression. The experiment in a line: ANGPTL4 gene expression (qPCR) in WPMY-1 myofibroblasts. The settings on record: WPMY-1, 1 μM, 24 hours, compared to DMSO-treated cells. In kind it is cell-based, human. As to the method: FIG. 5: Influence of the substances of this invention comparative compound (CC) 2, compound 1, compound 5, compound 2 and compound 3 on ANGPTL4 gene expression. • (A) Comparison of relative ANGPTL4 expression, (B) mean inhibitory concentration of substances of this invention. (A) Human myofibroblasts (WPMY-1) are treated for 24 hours with the substances of this invention (1 μM), then RNA is isolated, the cDNA synthesized and analyzed by qPCR, normalized to L27 gene expression. (B) Titration of the effect of substances of this invention on the endogenous ANGPTL4 expression in WPMY-1 cells (left) or peritoneal mouse macrophages (right) after cells have been treated for six hours with the substances of this invention compound 1 and compound 2, respectively; RNA isolation, cDNA synthesis and qPCR as described for (A). The relative expression is calculated in relation to DMSO-treated cells. All values are average values of triplicates (+1-standard deviation). Asterisks (***, **, *) indicate significant differences to DMSO-treated cells (***: p<0.001 after t-test; *: p <0.05).
The influence of substances of this invention on PPAR-beta/delta regulated genes like for example ANGPTL4 which codes for the angiopoietin-like protein ANGPTL4 is assessed in different cells with a confluence of 70% to 80% in a 6-well cell culture plate. For this purpose, cultivated human myofibroblasts (WPMY-1), peritoneal mouse macrophages or cells of the human breast cancer cell line MDA-MB-231 are treated for 24 hours with 1 μM of the substances of this invention. Cells of the breast cancer cell line are in addition stimulated for 6 hours with TGF-beta2 (2 ng/ml) which is commercially available. Subsequently, RNA is isolated from the cells by procedures known to the expert and analyzed by quantitative PCR (qPCR, real time qPCR, RT-qPCR) also known to those skilled in the art. […]
On the technique in general: Real-time PCR tracks product formation cycle by cycle.

SMILES strings stand for the structures. “Also recorded” adds a separate entry of the source.

For `COC(=O)c1sccc1S(=O)(=O)Nc1ccc(NCc2ccccc2)cc1OC` [compound 4, methyl 3-(N-(4-(benzylamino)-2-methoxyphenyl)sulfamoyl)thiophene-2-carboxylate], the “competition with Fluormone Pan-PPAR-Green for binding to GST-PPAR beta/delta LBD” value in test [1] is “significant competition efficacy; also recorded: significant competition efficiency”. Also, the “induction of interaction of PPAR beta/delta LBD with corepressor peptide SMRT-ID2” value in test [2] is “clearly demonstrate the interaction; also recorded: induce”.

As for `COC(=O)c1sccc1S(=O)(=O)Nc1ccc(NCCC(C)C)cc1OC` [compound 3, methyl 3-(N-(4-(isopentylamino)-2-methoxyphenyl)sulfamoyl)thiophene-2-carboxylate], the “agonist-induced transcriptional activity of PPAR beta/delta (luciferase induction)” value in test [3] is on record as “inhibited in a PPAR subtype-specific manner”. Moreover, in test [1], the “competition with Fluormone Pan-PPAR-Green for binding to GST-PPAR beta/delta LBD” value is on record as “significant competition efficacy; also recorded: significant competition efficiency”. Moreover, the “induction of interaction of PPAR beta/delta LBD with corepressor peptide SMRT-ID2” value in test [2] is given as “clearly demonstrate the interaction; also recorded: induce”.

In the case of `COC(=O)c1sccc1S(=O)(=O)Nc1ccc(N2CCOCC2)cc1OC` [comparison compound 2, methyl 3-(N-(2-methoxy-4-morpholinophenyl)sulfamoyl)thiophene-2-carboxylate, reference compound], the “reduction of relative expression of the ANGPTL4 gene” value in test [4] is given as “up to 10%”.
